Laboratory results from patent US4088772A, “Methanodibenzocycloheptapyrroles” (E. I. Du Pont de Nemours and Company, priority 1975, dated 1978).
Like-named read-outs stand apart in the source and are kept apart here.

Legend:
[1] = system: phenylquinone-induced writhing; experiment: Phenylquinone writhing test (analgesia); type: in vivo, mouse (Carworth CF1 S female); conditions: Table 1; oral, mice
Source text: This mouse test is predictive of analgesic response in humans. [E. Siegmund, R. Cadmus and G. Lee, Proc. Soc.
ED50 values were obtained graphically from the data.

female white mice = experiment: in vivo; conditions: oral; for LD50 / Catatonia ED50 / Exploratory Loss Visual ED50 / Muscle Tone ED50 / Ptosis ED50 / Reflexes Grip ED50 / Reflexes Lift ED50 / Reflexes Pinna ED50 / Tremors ED50: Table 1; for LD50: 24-hour value; for Catatonia ED50 / Exploratory Loss Visual ED50 / Muscle Tone ED50 / Ptosis ED50 / Reflexes Grip ED50 / Reflexes Lift ED50 / Reflexes Pinna ED50 / Tremors ED50 / ED50: mice; for ED50: Mus musculus, po
Procedure: (§1) Groups of five Carworth CF1 S female mice, 16-20 g each, were fasted 16-22 hours before use. The mice were put in opaque plastic "shoe-box" cages 15-30 min. before injection, and then treated orally with 4, 12, 36, 108 and 324 mg/kg of the compound to be tested as a 13 mg/ml solution in 1% aqueous distilled water solution of methylcellulose (Methocel®). Each dose was given in a standard volume of 0.45 ml. Observations were made at 0.5, 2 and 24 hours after dosing. ED50 values were calculated for each parameter including death (LD50). The ED50 and LD50 values are the doses at which 50% of the naimals would be expected to respond.
(§2) The mouse is placed on a stainless steel wire mesh screen (8 × 12 inches, 3 mesh per inch, 1/4 inch mesh openings) "shoe-box" lid (1 inch high) and is observed for normal activities, such as nose movements, head movements with apparent visual examination of the area, and/or walking around on the screen. Absence of or marked depression of these activities for 5 seconds constitutes loss of exploratory activity.
(§3) The mouse is picked up by the tail and placed on the screen with its head facing the observer. Bilateral eyelid closure of 50% or more two seconds after placement is considered ptosis.
(§4) The mouse is placed with its front paws on the edge of a stainless steel "shoe-box" cover, 1 inch high, covered with adhesive tape. Failure to remove both paws from the cover's edge within 5 seconds constitutes catatonia.
(§5) The observer gently strokes the abdominal musculature of the mouse with thumb and forefinger. Flaccidity (or rarely, tenseness) is recorded.
(§6) The mouse is gently swung by the tail toward a horizontal 12 gauge wire tautly stretched 25 cm above the bench. After the mouse grasps the wire with its forepaws, its posterior end is held directly below the wire. A normal mouse grasps the wire with its forepaws and immediately lifts its hind limbs to the wire. Failure to grasp the wire with the forepaws in both trials constitutes loss of the grip reflex; failure to lift the hind limbs to grasp the wire with at least one hind paw within 5 seconds constitutes loss of the lift reflex.
(§7) The mouse is placed on the bar 10-20 cm horizontally and 9 cm vertically from a Galton whistle adjusted for 13 kc (5 mm on the whistle scale) and is subjected to several short bursts of sound.
(§8) An effective tranquilizer should induce little or no tremor response. […] Tremors include fine or coarse and intermittent or continuous tremors.

in vivo = conditions: mouse, in vivo, po
Procedure: as §1, §2, §3, §4, §5, §6, §7, §8

[2] = read-out: Catatonia ED50, Table III
[3] = read-out: Exploratory Loss Visual ED50, Table III
[4] = read-out: Muscle Tone ED50, Table III
[5] = read-out: Ptosis ED50, Table III
[6] = read-out: Reflexes Grip ED50, Table III
[7] = read-out: Reflexes Lift ED50, Table III
[8] = read-out: Reflexes Pinna ED50, Table III

Row | Molecule | LD50 (female white mice) [mg/kg] | Catatonia ED50 (female white mice) [mg/kg] | Exploratory Loss Visual ED50 (female white mice) [mg/kg] | Muscle Tone ED50 (female white mice) [mg/kg] | Ptosis ED50 (female white mice) [mg/kg] | Reflexes Grip ED50 (female white mice) [mg/kg] | Reflexes Lift ED50 (female white mice) [mg/kg] | Reflexes Pinna ED50 (female white mice) [mg/kg] | Tremors ED50 (female white mice) [mg/kg] | LD50 at 24 h (in vivo) [mg/kg] | ED50 (female white mice; [2]) [mg/kg] | ED50 (female white mice; [3]) [mg/kg] | ED50 (female white mice; [4]) [mg/kg] | ED50 (female white mice; [5]) [mg/kg] | ED50 (female white mice; [6]) [mg/kg] | ED50 (female white mice; [7]) [mg/kg] | ED50 (female white mice; [8]) [mg/kg] | also measured
1 | Nitro-2-methyl-2,3,8,12b-tetrahydro-1H-3a,8-methanodibenzo[3,4:6,7]cyclohepta[1,2-c]pyrrole Hydrochloride [Example 57] | 200 | > 324 | 20 | 60 | 12 | > 324 | > 324 | 12 | 100 |  |  |  |  |  |  |  |  | Phenylquinone Analgesia ED50 [1]: 5 mg/kg
2 | CN1CC2c3cc(Cl)ccc3C3CC2(C1)c1ccccc13.Cl (centres unmarked) [Example 80, 11-Chloro-2-methyl-2,3,8,12b-tetrahydro-1H-3a,8-methanodibenzo[3,4:6,7]cyclohepta[1,2-c]pyrrole Hydrochloride] |  |  |  |  |  |  |  |  |  | 200 | 100 | 7 | 20 | 20 | 60 | 20 | 20 | 
3 | Cc1ccc2c(c1)[C@]13C[C@H]2c2ccccc2[C@H]1CN(CC1CCCC1)C3 (relative stereo) [Example 89, 5-Methyl-2-cyclopentylmethyl-2,3,8,12b-tetrahydro-1H-3a,8-methanodibenzo[3,4:6,7]cyclohepta[1,2-c]pyrrole] |  |  |  |  |  |  |  |  |  | > 81 | 50 | 9 | 50 | 15 | < 81 | 25 | 15 | 
4 | 5- and 11-Chloro-2-methyl-2,3,8,12b-tetrahydro-1H- 3a,8-methanodibenzo[3,4:6,7]cyclohepta[1,2-c]pyrrole [Example 43] | 200 | 100 | 7 | 20 | 20 | 60 | 20 | 20 | 36 |  |  |  |  |  |  |  |  | 
5 | Cl.Clc1ccc2c(c1)C1CN(CC3CCCCC3)CC13CC2c1ccccc13 (centres unmarked) [Example 81, 11-Chloro-2-cyclohexylmethyl-2,3,8,12b-tetrahydro-1H-3a,8-methanodibenzo[3,4:6,7]cyclohepta[1,2-c]-pyrrole Hydrochloride] |  |  |  |  |  |  |  |  |  | > 324 | 19 | 17 | 12 | < 3 | > 324 | 36 | 11 | 
6 | C[N+]1([O-])C[C@@H]2c3ccccc3[C@@H]3C[C@@]2(C1)c1ccccc13 (relative stereo) [Methyl-N-oxide] |  |  |  |  |  |  |  |  |  | > 324 |  |  |  |  |  |  |  | ED50 (in vivo): 36 mg/kg; ED50 (female white mice; read-out: Catatonia ED50, Table 1): 60 mg/kg; ED50 (female white mice; read-out: Exploratory Loss Visual ED50, Table 1): 60 mg/kg; ED50 (female white mice; read-out: Muscle Tone ED50, Table 1): 100 mg/kg; ED50 (female white mice; read-out: Ptosis ED50, Table 1): 36 mg/kg; ED50 (female white mice; read-out: Reflexes Grip ED50, Table 1): 200 mg/kg; ED50 (female white mice; read-out: Reflexes Lift ED50, Table 1): 36 mg/kg; ED50 (female white mice; read-out: Reflexes Pinna ED50, Table 1): 60 mg/kg
7 | c1ccc2c(c1)C1CC3(CN(CC4CCCC4)CC23)c2ccccc21 (single isomer, unassigned; (+)) [(+)-Cyclopentylmetnyl, 2-Cyclopentylmethyl-2,3,8,12b-tetrahydro-trans-1H,-3a,8-methanodibenzo[3,4:6,7]cyclohepta[1,2-c]pyrrole] | > 324 | 36 | 36 | 60 | 20 | 200 | 60 | 20 | > 324 |  |  |  |  |  |  |  |  | Phenylquinone Analgesia ED50 [1]: 24 mg/kg
8 | 5- and 11-Chloro-2-cyclohexylmethyl-2,3,8,12b-tetrahydro-1H-3a,8-methanodibenzo[3,4:6,7]cyclohepta[1,2-c]pyrrole [Example 44] | > 324 | 19 | 17 | 12 | < 3 | > 324 | 36 | 11 | > 324 |  |  |  |  |  |  |  |  | 
